Among the test systems are 786-0 renal; A498 renal; CAKI-1 renal; HCT-116 colon; HL-60(TB) leukemia; NCI/ADR-RES ovarian; OVCAR-8 ovarian; RPMI-8226 leukemia; SK-OV-3 ovarian; UACC-62 melanoma.
What all share (test): DTP human tumour cell line panel, 48 h

For seven compounds, GI50 and TGI results are on record in PubChem BioAssay (NCI).

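Dose response: 5 concentrations. Exposure: 48 h. Format: 96-well plates. Endpoint: linear interpolation; highest concentration if not reached. GI50: concentration for 50% inhibition of growth. TGI: total growth inhibition.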

One may read the GI50 as the concentration giving 50% growth inhibition. As usually defined, the TGI is the concentration giving total growth inhibition. On to `CC1(C)N=C(N)N=C(N)N1c1ccc(OCCCCNC(=O)Nc2cccc(S(=O)(=O)F)c2)c(Cl)c1`, for which the GI50 with 786-0 renal is 2.75 µM; in the experiment on A498 renal, 14.5 µM; in the experiment with CAKI-1 renal, 35.4 µM; with HCT-116 colon, 0.594 µM; in the experiment with HL-60(TB) leukemia, 0.61 µM; with NCI/ADR-RES ovarian, > 100 µM. Further, the GI50 is 4.28 µM in the experiment with OVCAR-8 ovarian, 3 µM in the experiment on RPMI-8226 leukemia, > 100 µM in the experiment on SK-OV-3 ovarian and 0.491 µM with UACC-62 melanoma. Further, the TGI in the experiment on 786-0 renal, in the experiment with A498 renal, in the experiment with CAKI-1 renal, with HCT-116 colon, in the experiment on HL-60(TB) leukemia and in the experiment with NCI/ADR-RES ovarian was > 100 µM each time. Also, the TGI in the experiment on OVCAR-8 ovarian is > 100 µM; in the experiment on RPMI-8226 leukemia, 93.3 µM; with SK-OV-3 ovarian, > 100 µM; in the experiment with UACC-62 melanoma, > 100 µM.

Turning to `CCN(CCNc1ccc(C)c2sc3cc(Cl)ccc3c(=O)c12)CC(C)(C)O`, the GI50 is 5.13 µM in the experiment on 786-0 renal; 3.47 µM in the experiment on A498 renal; 1.51 µM with CAKI-1 renal; 4.94 µM with HCT-116 colon; 12.2 µM in the experiment with HL-60(TB) leukemia; 6.37 µM in the experiment on NCI/ADR-RES ovarian. In addition, the GI50 was 22.5 µM in the experiment with OVCAR-8 ovarian, 3.86 µM in the experiment with RPMI-8226 leukemia, 6.21 µM in the experiment on SK-OV-3 ovarian and 1.67 µM in the experiment on UACC-62 melanoma. Further, the TGI in the experiment with 786-0 renal was found to be 17.7 µM; in the experiment with A498 renal it was 14.9 µM; in the experiment on CAKI-1 renal, 4.9 µM; in the experiment with HCT-116 colon, 18.2 µM; in the experiment with HL-60(TB) leukemia, 44.7 µM; in the experiment on NCI/ADR-RES ovarian it was 30.5 µM. Further, the TGI in the experiment with OVCAR-8 ovarian was > 100 µM; in the experiment on RPMI-8226 leukemia it was 22.2 µM; in the experiment with SK-OV-3 ovarian, 20.4 µM; in the experiment on UACC-62 melanoma, 3.37 µM.

Regarding `CCc1ccc(C2=NN(c3ccc(S(C)(=O)=O)cc3)C(=O)CC2)cc1`, the GI50 with 786-0 renal was 4.39 µM; in the experiment with A498 renal, 0.322 µM; in the experiment on CAKI-1 renal, 1.65 µM; with HCT-116 colon, 0.942 µM; with HL-60(TB) leukemia, 1.2 µM; with NCI/ADR-RES ovarian, 0.416 µM. Moreover, the GI50 was 2.87 µM in the experiment with OVCAR-8 ovarian, 3.97 µM with RPMI-8226 leukemia, 2.34 µM in the experiment with SK-OV-3 ovarian and 0.603 µM in the experiment with UACC-62 melanoma. The concentration for total growth inhibition (TGI) in the experiment with 786-0 renal is 54.4 µM; with A498 renal, 4.46 µM; in the experiment with CAKI-1 renal, > 28.7 µM; with HCT-116 colon, > 39.2 µM; with HL-60(TB) leukemia it was 6.35 µM; in the experiment with NCI/ADR-RES ovarian it was 2.6 µM. Besides, the TGI in the experiment with OVCAR-8 ovarian was > 81.8 µM; in the experiment with RPMI-8226 leukemia, > 57.6 µM; in the experiment on SK-OV-3 ovarian it was 12.4 µM; in the experiment with UACC-62 melanoma it was > 100 µM.

`COc1ccc(C(=O)/C=C/c2ccc(OCc3ccccc3)c(OC)c2)cc1OC`: the GI50 in the experiment with 786-0 renal was 5.36 µM; in the experiment with A498 renal, 3.24 µM; with CAKI-1 renal, 4.07 µM; in the experiment on HCT-116 colon, 3.19 µM; with HL-60(TB) leukemia, 3.67 µM; with NCI/ADR-RES ovarian it was 3.08 µM. For the same compound, the GI50 with OVCAR-8 ovarian is 3.1 µM; in the experiment on RPMI-8226 leukemia, 1.88 µM; with SK-OV-3 ovarian, 2.97 µM; in the experiment with UACC-62 melanoma it was 4.01 µM. Moreover, the total growth inhibition concentration (TGI) with 786-0 renal is > 100 µM; in the experiment on A498 renal, 25.3 µM; in the experiment on CAKI-1 renal it was > 100 µM; in the experiment on HCT-116 colon it was > 100 µM; in the experiment with HL-60(TB) leukemia, 32.5 µM; with NCI/ADR-RES ovarian it was > 100 µM. The TGI was > 100 µM in the experiment with OVCAR-8 ovarian, 7.16 µM with RPMI-8226 leukemia, 12.4 µM with SK-OV-3 ovarian and > 100 µM with UACC-62 melanoma.

Consider `Cc1ccc(-c2nc(C(Cl)Cl)nc3cc(C)nn23)cc1`, for which the GI50 with 786-0 renal is > 100 µM; in the experiment on A498 renal it was 1.75 µM; in the experiment with CAKI-1 renal, 1.59 µM; in the experiment with HCT-116 colon, 2.09 µM; with HL-60(TB) leukemia it was 1.33 µM; in the experiment on NCI/ADR-RES ovarian, 1.18 µM. The GI50 is 1.67 µM with OVCAR-8 ovarian, 5.02 µM with RPMI-8226 leukemia, 2.28 µM in the experiment on SK-OV-3 ovarian and 3.12 µM in the experiment with UACC-62 melanoma. In addition, the concentration for total growth inhibition (TGI) with 786-0 renal was > 100 µM; in the experiment with A498 renal, 4.7 µM; in the experiment on CAKI-1 renal, 5.42 µM; in the experiment with HCT-116 colon, > 100 µM; in the experiment on HL-60(TB) leukemia, 5.46 µM; with NCI/ADR-RES ovarian, 5.73 µM. The TGI in the experiment on OVCAR-8 ovarian was > 100 µM; in the experiment with RPMI-8226 leukemia it was > 100 µM; in the experiment with SK-OV-3 ovarian, 8.62 µM; in the experiment on UACC-62 melanoma it was > 100 µM.

Take `Cc1ccc(NC(=O)c2ccc(NC3=C(Cl)C(=O)N(Cc4ccccc4)C3=O)cc2)cc1Cl`: the GI50 was 3.35 µM with 786-0 renal; 0.854 µM with A498 renal; 1.68 µM in the experiment on CAKI-1 renal; 3.08 µM in the experiment on HCT-116 colon; 3.78 µM with NCI/ADR-RES ovarian; 9.96 µM in the experiment on OVCAR-8 ovarian. The values for the GI50 in the experiment with RPMI-8226 leukemia, in the experiment on SK-OV-3 ovarian and with UACC-62 melanoma were 3.58 µM, 22.7 µM and 15.5 µM, respectively. In addition, the concentration for total growth inhibition (TGI) in the experiment on 786-0 renal came out at 15.9 µM; in the experiment with A498 renal, 26.9 µM; with CAKI-1 renal it was 3.81 µM; in the experiment on HCT-116 colon it was 13.3 µM; in the experiment on HL-60(TB) leukemia, 14.6 µM; in the experiment on NCI/ADR-RES ovarian it was 21.7 µM. For the same compound, the TGI with OVCAR-8 ovarian was 21.5 µM; in the experiment with RPMI-8226 leukemia it was 16.5 µM; in the experiment with SK-OV-3 ovarian it was 54.6 µM; with UACC-62 melanoma, 59.9 µM.

As for `Nc1n[nH]c2ccc([C@@H]3Nc4c(F)cc5[nH]ncc5c4[C@H]4C5CCC(C5)[C@@H]34)cc12` (some centres undefined), the GI50 with 786-0 renal was 0.74 µM; with A498 renal it was 0.0413 µM; in the experiment on CAKI-1 renal, 0.329 µM; with HCT-116 colon, 0.293 µM; in the experiment with HL-60(TB) leukemia, 0.243 µM; in the experiment with NCI/ADR-RES ovarian, 0.234 µM. Besides, the GI50 is 0.468 µM in the experiment on OVCAR-8 ovarian, 0.472 µM in the experiment on RPMI-8226 leukemia, 0.686 µM in the experiment on SK-OV-3 ovarian and 0.242 µM in the experiment on UACC-62 melanoma. Moreover, the total growth inhibition concentration (TGI) in the experiment with 786-0 renal was 25 µM; in the experiment on A498 renal, 0.337 µM; in the experiment on CAKI-1 renal it was > 47.5 µM; in the experiment with HCT-116 colon it was 6.22 µM; in the experiment with HL-60(TB) leukemia it was 0.642 µM; with NCI/ADR-RES ovarian, 5.84 µM. Moreover, the TGI in the experiment with OVCAR-8 ovarian was > 100 µM; in the experiment with RPMI-8226 leukemia, 24.6 µM; in the experiment with SK-OV-3 ovarian it was > 58.2 µM; in the experiment with UACC-62 melanoma it was > 44.9 µM.
